Results: ChEMBL document CHEMBL1201861, “Genomics of Drug Sensitity in Cancer screening data, Wellcome Trust Sanger Institute”

Assays:
CPC-N = experiment: cells; format: functional, cell-based, Homo sapiens; details: Homo sapiens, CPC-N;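 also: growth inhibition of CPC-N cells, with a cell viability assay as the readout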
Description: SANGER: Inhibition of human CPC-N cell growth in a cell viability assay.

D-542MG = experiment: cells; format: functional, cell-based, Homo sapiens; details: Homo sapiens, D-542MG
Description: SANGER: Inhibition of human D-542MG cell growth in a cell viability assay.

DMS-273 = experiment: cells; format: functional, cell-based, Homo sapiens; details: Homo sapiens, DMS-273
Description: SANGER: Inhibition of human DMS-273 cell growth in a cell viability assay.

DoTc2-4510 = experiment: cells; format: functional, cell-based, Homo sapiens; details: Homo sapiens, DoTc2-4510
EGI-1 = experiment: cells; format: functional, cell-based, Homo sapiens; details: Homo sapiens, EGI-1;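 also: cell viability readout used to gauge growth inhibition of EGI-1 cells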
Description: SANGER: Inhibition of human EGI-1 cell growth in a cell viability assay.

EVSA-T = experiment: cells; format: functional, cell-based, Homo sapiens; details: Homo sapiens, EVSA-T;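 also: growth inhibition of EVSA-T cells, read out with a cell viability assay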
Description: SANGER: Inhibition of human EVSA-T cell growth in a cell viability assay.

GAMG = experiment: cells; format: functional, cell-based, Homo sapiens; details: Homo sapiens, GAMG;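 also: cell growth inhibition measured by a viability assay in the GAMG human cell line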
Description: SANGER: Inhibition of human GAMG cell growth in a cell viability assay.

GCT = experiment: cells; format: functional, cell-based, Homo sapiens; details: Homo sapiens, GCT;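 also: GCT cell line proliferation inhibition, read out with a cell viability assay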
Description: SANGER: Inhibition of human GCT cell growth in a cell viability assay.

H4 = experiment: cells; format: functional, cell-based, Homo sapiens; details: Homo sapiens, H4
Description: SANGER: Inhibition of human H4 cell growth in a cell viability assay.

HCC1419 = experiment: cells; format: functional, cell-based, Homo sapiens; details: Homo sapiens, HCC1419;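 also: growth inhibition of human HCC1419 cells, read out as cell viability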
Description: SANGER: Inhibition of human HCC1419 cell growth in a cell viability assay.

HSC-4 = experiment: cells; format: functional, cell-based, Homo sapiens; details: Homo sapiens, HSC-4;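 also: growth inhibition of human HSC-4 cells, read out with a cell viability assay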
Description: SANGER: Inhibition of human HSC-4 cell growth in a cell viability assay.

HuCCT-1 = experiment: cells; format: functional, cell-based, Homo sapiens, HuCCT1; details: Homo sapiens, HuCCT-1;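 also: growth inhibition of HuCCT-1 cells, read out by a cell viability assay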
Description: SANGER: Inhibition of human HuCCT1 cell growth in a cell viability assay.

K052 = experiment: cells; format: functional, cell-based, Homo sapiens; details: Homo sapiens, K052;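 also: Read-out from a cell viability assay, IC50 reflecting suppression of K052 cell growth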
Description: SANGER: Inhibition of human K052 cell growth in a cell viability assay.

KMS-12-PE = experiment: cells; format: functional, cell-based, Homo sapiens; details: Homo sapiens, KMS-12-PE;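 also: growth inhibition of human KMS-12-PE cells, measured with a cell viability assay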
Description: SANGER: Inhibition of human KMS-12-PE cell growth in a cell viability assay.

KYSE-270 = experiment: cells; format: functional, cell-based, Homo sapiens; details: Homo sapiens, KYSE-270;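 also: cell growth inhibition measured with a viability assay in the human KYSE-270 line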
Description: SANGER: Inhibition of human KYSE-270 cell growth in a cell viability assay.

LU-165 = experiment: cells; format: functional, cell-based, Homo sapiens; details: Homo sapiens, LU-165
Description: SANGER: Inhibition of human LU-165 cell growth in a cell viability assay.

LoVo = experiment: cells; format: functional, cell-based, Homo sapiens; details: Homo sapiens, LoVo;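 also: growth inhibition of human LoVo cells, read out with a cell viability assay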
Description: SANGER: Inhibition of human LoVo cell growth in a cell viability assay.

MDA-MB-175-VII = experiment: cells; format: functional, cell-based, Homo sapiens; details: Homo sapiens, MDA-MB-175-VII
MDA-MB-361 = experiment: cells; format: functional, cell-based, Homo sapiens; details: Homo sapiens, MDA-MB-361
ME-180 = experiment: cells; format: functional, cell-based, Homo sapiens; details: Homo sapiens, ME-180;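 also: cell viability assay measuring growth inhibition of ME-180 cells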
Description: SANGER: Inhibition of human ME-180 cell growth in a cell viability assay.

MKN-28 = experiment: cells; format: functional, cell-based, Homo sapiens; details: Homo sapiens, MKN-28;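 also: cell viability assay read-out, IC50 reflects suppression of growth of human MKN-28 cells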
Description: SANGER: Inhibition of human MKN28 cell growth in a cell viability assay.

NCCIT = experiment: SANGER: Inhibition of human NCCIT cell growth in a cell viability assay.; format: functional, cell-based; details: Homo sapiens, NCCIT
NCI-H187 = experiment: cells; format: functional, cell-based, Homo sapiens; details: Homo sapiens, NCI-H187;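 also: growth inhibition of NCI-H187 cells, read out as cell viability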
Description: SANGER: Inhibition of human NCI-H187 cell growth in a cell viability assay.

NCI-H1963 = experiment: cells; format: functional, cell-based, Homo sapiens; details: Homo sapiens, NCI-H1963;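 also: cell growth inhibition of the human line, determined with a cell viability assay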
Description: SANGER: Inhibition of human NCI-H1963 cell growth in a cell viability assay.

NCI-H2171 = experiment: cells; format: functional, cell-based, Homo sapiens; details: Homo sapiens, NCI-H2171;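 also: growth inhibition of human NCI-H2171 cells, read out by a cell viability assay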
Description: SANGER: Inhibition of human NCI-H2171 cell growth in a cell viability assay.

NCI-H2227 = experiment: cells; format: functional, cell-based, Homo sapiens; details: Homo sapiens, NCI-H2227;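 also: growth inhibition of the human cell line, read out with a cell viability assay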
Description: SANGER: Inhibition of human NCI-H2227 cell growth in a cell viability assay.

NCI-H524 = experiment: cells; format: functional, cell-based, Homo sapiens; details: Homo sapiens, NCI-H524;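 also: growth inhibition of human NCI-H524 cells, read out through a cell viability assay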
Description: SANGER: Inhibition of human NCI-H524 cell growth in a cell viability assay.

NCI-H64 = experiment: cells; format: functional, cell-based, Homo sapiens; details: Homo sapiens, NCI-H64;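 also: growth inhibition of NCI-H64 cells, read out with a cell viability assay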
Description: SANGER: Inhibition of human NCI-H64 cell growth in a cell viability assay.

NCI-H650 = experiment: cells; format: functional, cell-based, Homo sapiens; details: Homo sapiens, NCI-H650;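 also: growth inhibition of NCI-H650 cells, read out by a viability assay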
Description: SANGER: Inhibition of human NCI-H650 cell growth in a cell viability assay.

NUGC-3 = experiment: cells; format: functional, cell-based, Homo sapiens; details: Homo sapiens, NUGC-3;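 also: growth inhibition of human NUGC-3 cells, read out with a cell viability assay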
Description: SANGER: Inhibition of human NUGC-3 cell growth in a cell viability assay.

OE33 = experiment: cells; format: functional, cell-based, Homo sapiens; details: Homo sapiens, OE33;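 also: growth inhibition of human OE33 cells, measured by a cell viability assay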
Description: SANGER: Inhibition of human OE33 cell growth in a cell viability assay.

PC-3 = experiment: cells; format: functional, cell-based, Homo sapiens; details: Homo sapiens, PC-3;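 also: cell viability assay measuring growth inhibition of PC-3 cells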
Description: SANGER: Inhibition of human PC-3 cell growth in a cell viability assay.

PF-382 = experiment: cells; format: functional, cell-based, Homo sapiens; details: Homo sapiens, PF-382
Description: SANGER: Inhibition of human PF-382 cell growth in a cell viability assay.

SBC-5 = experiment: cells; format: functional, cell-based, Homo sapiens; details: Homo sapiens, SBC-5;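 also: cell viability assay read-out, IC50 is the concentration that inhibits growth of the cells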
Description: SANGER: Inhibition of human SBC-5 cell growth in a cell viability assay.

SCC-25 = experiment: cells; format: functional, cell-based, Homo sapiens; details: Homo sapiens, SCC-25;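 also: growth inhibition of SCC-25 cells, measured with a cell viability assay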
Description: SANGER: Inhibition of human SCC-25 cell growth in a cell viability assay.

SIG-M5 = experiment: cells; format: functional, cell-based, Homo sapiens; details: Homo sapiens, SIG-M5;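 also: cell viability assay read-out, measuring how strongly growth of cultured human SIG-M5 cells is inhibited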
Description: SANGER: Inhibition of human SIG-M5 cell growth in a cell viability assay.

SK-MEL3 = experiment: cells; format: functional, cell-based, Homo sapiens, SK-MEL-3; details: Homo sapiens, SK-MEL3;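 also: growth inhibition of human SK-MEL-3 cells, read out with a cell viability assay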
Description: SANGER: Inhibition of human SK-MEL-3 cell growth in a cell viability assay.

SW1573 = experiment: cells; format: functional, cell-based, Homo sapiens; details: Homo sapiens, SW1573;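 also: growth inhibition of SW1573 cells, read out with a cell viability assay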
Description: SANGER: Inhibition of human SW1573 cell growth in a cell viability assay.

SiHa = experiment: cells; format: functional, cell-based, Homo sapiens; details: Homo sapiens, SiHa;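 also: Viability-based readout of growth inhibition in SiHa cells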
Description: SANGER: Inhibition of human SiHa cell growth in a cell viability assay.

TALL-1 = experiment: cells; format: functional, cell-based, Homo sapiens; details: Homo sapiens, TALL-1;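 also: growth inhibition of cultured human TALL-1 cells, read out by a cell viability assay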
Description: SANGER: Inhibition of human TALL-1 cell growth in a cell viability assay.

A2780 = experiment: cells; format: functional, cell-based, Homo sapiens; details: Homo sapiens, A2780;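 also: growth inhibition of A2780 cells, read out with a cell viability assay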
Description: SANGER: Inhibition of human A2780 cell growth in a cell viability assay.

A-375 = experiment: cells; format: functional, cell-based, Homo sapiens; details: Homo sapiens, A-375;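 also: growth inhibition of A375 cells, read out with a cell viability assay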
Description: SANGER: Inhibition of human A375 cell growth in a cell viability assay.

BFTC-909 = experiment: cells; format: functional, cell-based, Homo sapiens; details: Homo sapiens, BFTC-909
Description: SANGER: Inhibition of human BFTC-909 cell growth in a cell viability assay.

C32 = experiment: cells; format: functional, cell-based, Homo sapiens; details: Homo sapiens, C32;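 also: cell viability assay, with IC50 reflecting inhibition of C32 cell growth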
Description: SANGER: Inhibition of human C32 cell growth in a cell viability assay.

CAL-85-1 = experiment: cells; format: functional, cell-based, Homo sapiens; details: Homo sapiens, CAL-85-1;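 also: growth inhibition of human CAL-85-1 cells, read out with a cell viability assay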
Description: SANGER: Inhibition of human CAL-85-1 cell growth in a cell viability assay.

UACC-812 = experiment: cells; format: functional, cell-based, Homo sapiens; details: Homo sapiens, UACC-812
Description: SANGER: Inhibition of human UACC-812 cell growth in a cell viability assay.

YAPC = experiment: cells; format: functional, cell-based, Homo sapiens; details: Homo sapiens, YAPC;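 also: growth inhibition of YAPC cells, measured with a cell viability assay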
Description: SANGER: Inhibition of human YAPC cell growth in a cell viability assay.

For `Nc1ccn([C@@H]2O[C@H](CO)[C@@H](O)C2(F)F)c(=O)n1` [GEMCITABINE], the IC50 (CPC-N) was 329 nM, the IC50 (D-542MG) was greater than 1020 nM and the IC50 (DMS-273) was 3.07 nM. It also gave an IC50 (DoTc2-4510) of less than 4 nM, an IC50 (EGI-1) of 214 nM and an IC50 (EVSA-T) greater than 1020 nM. It also gave an IC50 (GAMG) of 3.74 nM, an IC50 (GCT) of 405 nM and an IC50 (H4) of 2.18 nM. The IC50 (HCC1419) was greater than 1020 nM, the IC50 (HSC-4) was less than 4 nM and the IC50 (HuCCT-1) was 20.6 nM. It also gave an IC50 (K052) of 137 nM, an IC50 (KMS-12-PE) greater than 1020 nM and an IC50 (KYSE-270) of less than 4 nM. The IC50 (LU-165) was greater than 1020 nM, the IC50 (LoVo) was 5.71 nM and the IC50 (MDA-MB-175-VII) was greater than 1020 nM. It also gave an IC50 (MDA-MB-361) of 461 nM, an IC50 (ME-180) of 38.8 nM and an IC50 (MKN-28) greater than 1020 nM. The IC50 (NCCIT) was 176 nM, the IC50 (NCI-H187) was greater than 1020 nM and the IC50 (NCI-H1963) was greater than 1020 nM. The IC50 (NCI-H2171) was greater than 1020 nM, the IC50 (NCI-H2227) was greater than 1020 nM and the IC50 (NCI-H524) was greater than 1020 nM. For the same molecule, the IC50 (NCI-H64) was 151 nM, the IC50 (NCI-H650) was 566 nM and the IC50 (NUGC-3) was 18.3 nM. The IC50 (OE33) was 61.2 nM, the IC50 (PC-3) was greater than 1020 nM and the IC50 (PF-382) was 44.2 nM. For the same molecule, the IC50 (SBC-5) was less than 4 nM, the IC50 (SCC-25) was 289 nM and the IC50 (SIG-M5) was less than 4 nM. For the same molecule, the IC50 (SK-MEL3) was 105 nM, the IC50 (SW1573) was 457 nM and the IC50 (SiHa) was greater than 1020 nM. It also gave an IC50 (TALL-1) greater than 1020 nM, an IC50 (A2780) of less than 4 nM and an IC50 (A-375) of less than 4 nM. The IC50 (BFTC-909) was 146 nM, the IC50 (C32) was greater than 1020 nM and the IC50 (CAL-85-1) was 145 nM. For the same molecule, the IC50 (UACC-812) was greater than 1020 nM and the IC50 (YAPC) was greater than 1020 nM.
